Measured values reported in ChEMBL document CHEMBL1129930, “Analogues of methotrexate in rheumatoid arthritis. 2. Effects of 5-deazaaminopterin, 5,10-dideazaaminopterin, and analogues on type II collagen-induced arthritis in mice” (J Med Chem, 1997).

Legend:
[1] = test system: Mus musculus; assay: Incidence of disease (mouse type II collagen) was scored as the percentage of animals within each experimental group that exhibited joint or limb inflammation on day 37 at intraperitoneal dose of 1.5 mg/kg; format: functional
[2] = test system: Mus musculus; assay: Incidence of disease (mouse type II collagen) was scored as the percentage of animals within each experimental group that exhibited joint or limb inflammation on day 37 at intraperitoneal dose of 3 mg/kg; format: functional
[3] = test system: Mus musculus; assay: Incidence of disease (mouse type II collagen) was scored as the percentage of animals within each experimental group that exhibited joint or limb inflammation on day 23 at intraperitoneal dose of 1.5 mg/kg; format: functional
[4] = test system: Mus musculus; assay: Incidence of disease (mouse type II collagen) was scored as the percentage of animals within each experimental group that exhibited joint or limb inflammation on day 23 at intraperitoneal dose of 3 mg/kg; format: functional
[5] = test system: Mus musculus; assay: Incidence of disease (mouse type II collagen) was scored as the percentage of animals within each experimental group that exhibited joint or limb inflammation on day 23 at intraperitoneal dose of 6 mg/kg; format: functional
[6] = test system: Mus musculus; assay: Incidence of disease (mouse type II collagen) was scored as the percentage of animals within each experimental group that exhibited joint or limb inflammation on day 44 at intraperitoneal dose of 1.5 mg/kg; format: functional
[7] = test system: Mus musculus; assay: Incidence of disease (mouse type II collagen) was scored as the percentage of animals within each experimental group that exhibited joint or limb inflammation on day 44 at intraperitoneal dose of 3 mg/kg; format: functional
[8] = test system: Mus musculus; assay: Incidence of disease (mouse type II collagen) was scored as the percentage of animals within each experimental group that exhibited joint or limb inflammation on day 44 at intraperitoneal dose of 6 mg/kg; format: functional
[9] = test system: Mus musculus; assay: Incidence of disease (mouse type II collagen) was scored as the percentage of animals within each experimental group that exhibited joint or limb inflammation on day 30 at intraperitoneal dose of 3 mg/kg; format: functional
[10] = test system: Mus musculus; assay: Incidence of disease (mouse type II collagen) was scored as the percentage of animals within each experimental group that exhibited joint or limb inflammation on day 30 at intraperitoneal dose of 6 mg/kg; format: functional
[11] = test system: Mus musculus; assay: Incidence of disease (mouse type II collagen) was scored as the percentage of animals within each experimental group that exhibited joint or limb inflammation on day 37 at intraperitoneal dose of 6 mg/kg; format: functional
[12] = test system: Mus musculus; assay: Incidence of disease (mouse type II collagen) was scored as the percentage of animals within each experimental group that exhibited joint or limb inflammation on day 30 at intraperitoneal dose of 1.5 mg/kg; format: functional
[13] = test system: Mus musculus; assay: Tested for antiinflammatory activity on mouse type II collagen arthritis as Paw swelling of all animals in each group on day 44 at intraperitoneal dose of 1.5 mg/kg; format: functional
[14] = test system: Mus musculus; assay: Tested for antiinflammatory activity on mouse type II collagen arthritis as Paw swelling of all animals in each group on day 30 at intraperitoneal dose of 3 mg/kg; format: functional
[15] = test system: Mus musculus; assay: Tested for antiinflammatory activity on mouse type II collagen arthritis as Paw swelling of all animals in each group on day 30 at intraperitoneal dose of 6 mg/kg; format: functional
[16] = test system: Mus musculus; assay: Tested for antiinflammatory activity on mouse type II collagen arthritis as Paw swelling of all animals in each group on day 23 at intraperitoneal dose of 1.5 mg/kg; format: functional
[17] = test system: Mus musculus; assay: Tested for antiinflammatory activity on mouse type II collagen arthritis as Paw swelling of all animals in each group on day 23 at intraperitoneal dose of 3 mg/kg; format: functional
[18] = test system: Mus musculus; assay: Tested for antiinflammatory activity on mouse type II collagen arthritis as Paw swelling of all animals in each group on day 23 at intraperitoneal dose of 6 mg/kg; format: functional
[19] = test system: Mus musculus; assay: Tested for antiinflammatory activity on mouse type II collagen arthritis as Paw swelling of all animals in each group on day 44 at intraperitoneal dose of 3 mg/kg; format: functional
[20] = test system: Mus musculus; assay: Tested for antiinflammatory activity on mouse type II collagen arthritis as Paw swelling of all animals in each group on day 37 at intraperitoneal dose of 3 mg/kg; format: functional
[21] = test system: Mus musculus; assay: Tested for antiinflammatory activity on mouse type II collagen arthritis as Paw swelling of all animals in each group on day 37 at intraperitoneal dose of 6 mg/kg; format: functional
[22] = test system: Mus musculus; assay: Tested for antiinflammatory activity on mouse type II collagen arthritis as Paw swelling of all animals in each group on day 30 at intraperitoneal dose of 1.5 mg/kg; format: functional
[23] = test system: Mus musculus; assay: Tested for antiinflammatory activity on mouse type II collagen arthritis as Paw swelling of all animals in each group on day 37 at intraperitoneal dose of 1.5 mg/kg; format: functional
[24] = test system: Mus musculus; assay: Tested for antiinflammatory activity on mouse type II collagen arthritis as Paw swelling of all animals in each group on day 44 at intraperitoneal dose of 6 mg/kg; format: functional
[25] = Concentration required to inhibit the growth of chang liver cells.; format: functional; details: Homo sapiens
[26] = test system: L1210; assay: Concentration required to inhibit the growth of L1210 cells.; format: functional, cell-based; details: Mus musculus

Compound | Animals [1] | Animals [2] | Animals [3] | Animals [4] | Animals [5] | Animals [6] | Animals [7] | Animals [8] | Animals [9] | Animals [10] | Animals [11] | Animals [12] | Paw swelling [13] | Paw swelling [14] | Paw swelling [15] | Paw swelling [16] | Paw swelling [17] | Paw swelling [18] | Paw swelling [19] | Paw swelling [23] | other results
CCc1c(CN(C)c2ccc(C(=O)NC(CCC(=O)O)C(=O)O)s2)cnc2nc(N)nc(N)c12 (stereo not drawn) | 38% | 12% | 25% | 0% | 0% | 50% | 88% | 50% | 0% | 0% | 12% | 12% | 2.37 mm | 2.15 mm | 2.13 mm | 2.24 mm | 2.14 mm | 2.12 mm | 2.45 mm | 2.26 mm | Paw swelling [20]: 2.2 mm; Paw swelling [21]: 2.16 mm; Paw swelling [22]: 2.2 mm; Paw swelling [24]: 2.32 mm
CCCCc1c(CNc2ccc(C(=O)NC(CCC(=O)O)C(=O)O)cc2)cnc2nc(N)nc(N)c12 (stereo not drawn) | 38% | 12% | 0% | 0% | 0% | 38% | 38% | 50% | 0% | 0% | 50% | 0% | 2.27 mm | 2.15 mm | 2.15 mm | 2.16 mm | 2.16 mm | 2.12 mm | 2.27 mm | 2.23 mm | Paw swelling [20]: 2.2 mm; Paw swelling [21]: 2.27 mm; Paw swelling [22]: 2.17 mm; Paw swelling [24]: 2.29 mm
CCC(Cc1cnc2nc(N)nc(N)c2c1)c1ccc(C(=O)NC(CCC(=O)O)C(=O)O)cc1 (stereo not drawn) | 88% | 100% | 25% | 25% | 12% | 88% | 100% | 100% | 88% | 100% | 88% | 62% | 2.59 mm | 2.43 mm | 2.57 mm | 2.17 mm | 2.26 mm | 2.2 mm | 2.7 mm | 2.48 mm | IC50 [25]: 12 nM; IC50 [26]: 75 nM; Paw swelling [20]: 2.67 mm; Paw swelling [21]: 2.8 mm; Paw swelling [22]: 2.31 mm; Paw swelling [24]: 2.76 mm
C=CCN(Cc1cnc2nc(N)nc(N)c2c1CC)c1ccc(C(=O)NC(CCC(=O)O)C(=O)O)cc1 (stereo not drawn) | 38% | 57% | 0% | 0% | 0% | 62% | 86% | 88% | 29% | 25% | 50% | 0% | 2.4 mm | 2.27 mm | 2.21 mm | 2.14 mm | 2.16 mm | 2.15 mm | 2.55 mm | 2.26 mm | Paw swelling [20]: 2.34 mm; Paw swelling [21]: 2.28 mm; Paw swelling [22]: 2.18 mm; Paw swelling [24]: 2.45 mm
Cc1c(CNc2ccc(C(=O)NC(CCC(=O)O)C(=O)O)cc2)cnc2nc(N)nc(N)c12 (stereo not drawn) | 25% | 40% | 0% | 12% | 0% | 75% | 60% | 100% | 0% | 0% | 100% | 0% | 2.55 mm | 2.18 mm | 2.16 mm | 2.13 mm | 2.21 mm | 2.12 mm | 2.53 mm | 2.31 mm | IC50 [25]: 123 nM; IC50 [26]: 1.8 nM; Paw swelling [20]: 2.42 mm; Paw swelling [21]: 2.34 mm; Paw swelling [24]: 2.59 mm
Cc1c(CN(C)c2ccc(C(=O)NC(CCC(=O)O)C(=O)O)s2)cnc2nc(N)nc(N)c12 (stereo not drawn) | 12% | 0% | 0% | 0% | 0% | 50% | 57% | 38% | 0% | 0% | 12% | 0% | 2.33 mm | 2.16 mm | 2.13 mm | 2.12 mm | 2.13 mm | 2.11 mm | 2.32 mm | 2.21 mm | Paw swelling [20]: 2.14 mm; Paw swelling [21]: 2.19 mm
C#CCN(Cc1cnc2nc(N)nc(N)c2c1C)c1ccc(C(=O)NC(CCC(=O)O)C(=O)O)cc1 (stereo not drawn) | 50% | 50% | 0% | 0% | 12% | 62% | 62% | 62% | 25% | 25% | 62% | 25% | 2.37 mm | 2.27 mm | 2.21 mm | 2.16 mm | 2.12 mm | 2.23 mm | 2.38 mm | 2.33 mm | IC50 [25]: 593 nM; IC50 [26]: 1.6 nM; Paw swelling [21]: 2.32 mm; Paw swelling [22]: 2.31 mm; Paw swelling [24]: 2.46 mm
CCCN(Cc1cnc2nc(N)nc(N)c2c1C)c1ccc(C(=O)NC(CCC(=O)O)C(=O)O)cc1 (stereo not drawn) | 12% | 0% | 0% | 0% | 0% | 25% | 0% | 25% | 0% | 12% | 12% | 0% | 2.22 mm | 2.13 mm | 2.19 mm | 2.15 mm | 2.12 mm | 2.16 mm | 2.16 mm | 2.21 mm | IC50 [25]: 14 nM; IC50 [26]: 11 nM; Paw swelling [20]: 2.17 mm; Paw swelling [21]: 2.2 mm; Paw swelling [22]: 2.15 mm; Paw swelling [24]: 2.24 mm
Cc1c(CN(C)c2ccc(C(=O)NC(CCC(=O)O)C(=O)O)cc2)cnc2nc(N)nc(N)c12 (stereo not drawn) | 50% | 50% | 0% | 0% |  | 62% | 100% |  | 50% |  |  | 12% | 2.44 mm | 2.26 mm |  |  | 2.1 mm |  | 2.48 mm | 2.42 mm | IC50 [25]: 78 nM; IC50 [26]: 1.3 nM; Paw swelling [20]: 2.47 mm; Paw swelling [22]: 2.26 mm
